Data as given in US20130085161A1, “PIPERIDINYL SUBSTITUTED 1,3-DIHYDRO-BENZOIMIDAZOL-2-YLIDENEAMINE DERIVATIVES” (NOVARTIS AG, priority 2010, published 2013).

Molecular target: T1, BaF3-Tel-IGF1-R (Homo sapiens, UniProt P08069)
T1 construct: the kinase domain of IGF-1R (aa 976-1367) linked by a Ser-Arg-linker; expressed in transfected cells; host or cells: BaF3 murine proB-cell lymphoma cells, stably transduced
Assay: BaF3 cell viability assay (resazurin), 384-well format
Format: cell-based
Settings: 384-well plate format; 48 h incubation; resazurin dye reduction; cell proliferation/viability
Text: BaF3-Tel-IGF1-R and BaF3-InsR are BaF3 murine proB-cell lymphoma cell derivatives [the BaF3 cell line (also termed Ba/F3) is available from the German Collection of Microorganisms and Cell Cultures (DSMZ), Braunschweig, Germany] that have been rendered IL-3-independent by stable transduction with kinase-activating fusions between human TEL (aa 1-452) and the kinase domain of IGF-1R (aa 976-1367) linked by a Ser-Arg-linker (Boulay et al, Cancer Res 68, 3743-3751, 2008), and a fusion between human TEL (aa 1-337) and the kinase domain (aa 1015-1382) of the Insulin receptor (Melnick J S et al, Proc Natl Acad Sci USA 103, 3153-3158, 2006), respectively. Cells are cultured in RPMI-1640 (Animed #1-14F01-1) supplemented with 2% L-glutamine (Animed #5-10K50-H) and 10% fetal calf serum (FCS, Animed #2-01F16-I). Wild-type, untransfected BaF3 cells are maintained in above medium plus 10 U/ml IL-3 (mouse Interleukin-3, Roche #1380745 or Invitrogen # PMC0035) and are used to identify non-selective, generally growth-inhibitory compounds. Cells (1.5×10^4 cells per well) are seeded in 190 μl fresh medium into 96-well plates. 10 μl 20× compound solutions are added. As internal control, the kinase inhibitor PKC412 is routinely used. Control cells treated with DMSO (0.1% final concentration) serve as growth reference (set as 100% growth). In addition, a plate blank value is routinely determined in a well containing only […] of medium and no cells. IC50 determinations are performed based on eight 3-fold serial dilutions of the test compound, starting at 10 μM. Following incubation of the cells for 48 h at 37° C. and 5% CO2, the effect of inhibitors on cell viability is assessed by the resazurin sodium salt dye reduction assay (commercially known as AlamarBlue assay) basically as previously described (O'Brien J. et al., Eur. J. Biochem. 267: 5421-5426, 2000). Briefly, 20 μl dye solution is added per well and the plates incubated for 6 h at 37° C. and 5% CO2. Thereafter, fluorescence is measured using a Saphirell 96-well plate reader (TECAN, Männedorf, Switzerland) with the following settings: Excitation 544 nm and Emission 590 nm. For data analysis, the plate blank value is subtracted from all data points. The effect of a particular test compound concentration on cell proliferation and viability is expressed as percentage of the blank-corrected reading obtained for cells treated with vehicle only, which is set as 100%. IC50 values can be determined using XLfit (V4.2), applying standard four parameter logistic model #205 (IDBS, Guilford, UK) or other common curve-fitting software.
To achieve a higher throughput, the cell viability assay can also be performed in a 384-well format. Briefly, 4′500 freshly diluted cells are seeded in 54 μl/well into 384-well plates using a liquid dispenser. 6 μl 10× compound solution is added to the cell plate. As internal control, the kinase inhibitor PKC412 is routinely used. Control cells treated with DMSO (0.1% final concentration) serve as growth reference (set as 100% growth). In addition, a plate blank value is routinely determined in a well containing only 60 μl of medium and no cells. Dose-response effects are determined by 3-fold serial compound dilutions, starting at 10 μM. Following incubation of the cells for 48 h at 37° C. and 5% CO2, the effect of compounds on cell proliferation/viability is assessed by addition of 6 μl resazurin sodium salt dye solution per well. Following incubation for an additional 6 hrs at 37° C. and 5% CO2, fluorescence is measured using an Infiniti M1000 microplate reader (TECAN, Männedorf, Switzerland) with excitation and emission wavelengths set at 544 and 590 nm, respectively. For data analysis, the plate blank value is subtracted from all data points. IC50 values can be determined by four parameter logistic fitting as described above.

T1 sequence (P08069 976-1367): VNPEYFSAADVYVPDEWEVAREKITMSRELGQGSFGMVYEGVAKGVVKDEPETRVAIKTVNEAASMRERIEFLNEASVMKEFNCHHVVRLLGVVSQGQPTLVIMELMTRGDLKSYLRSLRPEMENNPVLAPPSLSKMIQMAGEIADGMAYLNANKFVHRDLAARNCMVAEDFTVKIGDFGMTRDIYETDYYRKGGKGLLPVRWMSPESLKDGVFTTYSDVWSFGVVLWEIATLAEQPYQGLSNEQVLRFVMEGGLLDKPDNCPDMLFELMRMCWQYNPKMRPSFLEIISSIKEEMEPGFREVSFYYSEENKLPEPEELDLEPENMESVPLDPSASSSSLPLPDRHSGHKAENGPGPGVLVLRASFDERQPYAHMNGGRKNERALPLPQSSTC

Compound	IC50
CC(=O)Nc1ccc(Cl)cc1N1CC[C@H](n2c(=N)n(Cc3cccc4[nH]ccc34)c3ccc(F)cc32)[C@@H](O)C1 (racemic) [Example 67, Rac-trans-N-(4-Chloro-2-{4-[6-fluoro-2-imino-3-(1H-indol-4-ylmethyl)-2,3-dihydro-benzoimidazol-1-yl]-3-hydroxy-piperidin-1-yl}-phenyl)-acetamide]	23 nM
CC(=O)Nc1ccc(Cl)cc1N1CC[C@H](n2c(=N)n(Cc3ccccc3Cl)c3ccc(F)cc32)[C@@H](O)C1 (racemic) [Example 67.1, Rac-trans-N-(4-Chloro-2-{4-[3-(2-chloro-benzyl)-6-fluoro-2-imino-2,3-dihydro-benzo-imidazol-1-yl]-3-hydroxy-piperidin-1-yl}-phenyl)-acetamide]	10 nM
CC(=O)Nc1ccc(C)nc1N1CC[C@H](n2c(=N)n(Cc3ccccc3Cl)c3ccc(F)cc32)[C@@H](O)C1 (racemic) [Example 67.2, Rac-trans-N-{4-[3-(2-Chloro-benzyl)-6-fluoro-2-imino-2,3-dihydro-benzoimidazol-1-yl]-3-hydroxy-6′-methyl-3,4,5,6-tetrahydro-2H-[1,2′]bipyridinyl-3′-yl}-acetamide]	62 nM
CC(=O)Nc1ccc(C)nc1N1CC[C@H](n2c(=N)n(Cc3cccc4[nH]ccc34)c3ccc(F)cc32)[C@@H](O)C1 (racemic) [Example 67.3, Rac-trans-N-{4-[6-Fluoro-2-imino-3-(1H-indol-4-yl-methyl)-2,3-dihydro-benzo-imidazol-1-yl]-3-hydroxy-6′-methyl-3,4,5,6-tetrahydro-2H-[1,2′]bipyridinyl-3′-yl}-acetamide]	167 nM
CC(=O)Nc1ccc(C)nc1N1CC[C@H](n2c(=N)n(Cc3cccc4[nH]ccc34)c3ccccc32)[C@@H](O)C1 (racemic) [Example 67.4, Rac-trans-N-{3-Hydroxy-4-[2-imino-3-(1H-indol-4-ylmethyl)-2,3-dihydro-benzoimidazol-1-yl]-6′-methyl-3,4,5,6-tetrahydro-2H-[1,2′]bipyridinyl-3′-yl}-acetamide]	1010 nM
CC(=O)Nc1ccc(Cl)cc1N1CC[C@H](n2c(=N)n(Cc3cccc4[nH]ccc34)c3ccccc32)[C@@H](O)C1 (racemic) [Example 67.5, Rac-trans-N-(4-Chloro-2-{3-hydroxy-4-[2-imino-3-(1H-indol-4-ylmethyl)-2,3-dihydro-benzoimidazol-1-yl]-piperidin-1-yl}-phenyl)-acetamide]	30 nM
CC(=O)Nc1ccc(Cl)cc1N1CC[C@H](n2c(=N)n(Cc3cccc4[nH]nnc34)c3ccc(F)cc32)[C@@H](O)C1 (racemic) [Example 67.6, Rac-trans-N-(2-{4-[3-(1H-Benzo-triazol-4-ylmethyl)-6-fluoro-2-imino-2,3-dihydro-benzoimidazol-1-yl]-3-hydroxy-piperidin-1-yl}-4-chloro-phenyl)-acetamide]	517 nM
CC(=O)Nc1ccc(Cl)cc1N1CC[C@H](n2c(=N)n(Cc3cccc4[nH]cnc34)c3ccc(F)cc32)[C@@H](O)C1 (racemic) [Example 67.7, Rac-trans-N-(2-{4-[3-(1H-Benzo-imidazol-4-ylmethyl)-6-fluoro-2-imino-2,3-dihydro-benzo-imidazol-1-yl]-3-hydroxy-piperidin-1-yl}-4-chloro-phenyl)-acetamide]	644 nM
CC(=O)Nc1ccc(C)cc1N1CCC(n2c(=N)n(Cc3cccc4[nH]ccc34)c3ccccc32)CC1 [Example 56, N-(2-{4-[2-Imino-3-(1H-indol-4-ylmethyl)-2,3-dihydro-benzoimidazol-1-yl]-piperidin-1-yl}-4-methyl-phenyl)acetamide]	< 4.5 nM
COc1ccc(NC(C)=O)c(N2CCC(n3c(=N)n(Cc4cccc5[nH]ccc45)c4ccccc43)CC2)c1 [Example 56.1, N-(2-{4-[2-Imino-3-(1H-indol-4-ylmethyl)-2,3-dihydro-benzoimidazol-1-yl]-piperidin-1-yl}-4-methoxy-phenyl)-acetamide]	35 nM
CC(=O)Nc1ccccc1N1CCC(n2c(=N)n(Cc3cccc4[nH]ccc34)c3ccccc32)CC1 [Example 56.2, N-(2-{4-[2-Imino-3-(1H-indol-4-ylmethyl)-2,3-dihydro-benzoimidazol-1-yl]-piperidin-1-yl}-phenyl)-acetamide]	42 nM
CC(=O)Nc1ccc(C(F)(F)F)cc1N1CCC(n2c(=N)n(Cc3cccc4[nH]ccc34)c3ccccc32)CC1 [Example 56.3, N-(2-{4-[2-Imino-3-(1H-indol-4-ylmethyl)-2,3-dihydro-benzoimidazol-1-yl]-piperidin-1-yl}-4-trifluoromethyl-phenyl)-acetamide]	52 nM
CC(=O)Nc1ccc(C#N)cc1N1CCC(n2c(=N)n(Cc3cccc4[nH]ccc34)c3ccccc32)CC1 [Example 56.4, N-(4-Cyano-2-{4-[2-imino-3-(1H-indol-4-ylmethyl)-2,3-dihydro-benzoimidazol-1-yl]-piperidin-1-yl}-phenyl)-acetamide]	100 nM
CC(=O)Nc1ccc(C)cc1N1CCC(n2c(=N)n(Cc3ccccc3Cl)c3ccccc32)CC1 [Example 56.5, N-(2-{4-[3-(2-Chloro-benzyl)-2-imino-2,3-dihydro-benzoimidazol-1-yl]-piperidin-1-yl}-4-methyl-phenyl)-acetamide]	51 nM
CC(=O)Nc1ccc(C(F)(F)F)cc1N1CCC(n2c(=N)n(Cc3ccccc3Cl)c3ccccc32)CC1 [Example 56.7, N-(2-{4-[3-(2-Chloro-benzyl)-2-imino-2,3-dihydro-benzoimidazol-1-yl]-piperidin-1-yl}-4-trifluoromethyl-phenyl)-acetamide]	69 nM
CC(=O)Nc1ccc(C(F)(F)F)cc1N1CCC(n2c(=N)n(Cc3cccc4[nH]nnc34)c3ccccc32)CC1 [Example 56.8, N-(2-{4-[3-(1H-Benzotriazol-4-ylmethyl)-2-imino-2,3-dihydro-benzoimidazol-1-yl]-piperidin-1-yl}-4-trifluoromethyl-phenyl)-acetamide]	209 nM
CC(=O)Nc1ccc(C#N)cc1N1CCC(n2c(=N)n(Cc3ccccc3Cl)c3ccccc32)CC1 [Example 56.9, N-(2-{4-[3-(2-Chloro-benzyl)-2-imino-2,3-dihydro-benzoimidazol-1-yl]-piperidin-1-yl}-4-cyano-phenyl)-acetamide]	82 nM
COc1ccc(NC(C)=O)c(N2CCC(n3c(=N)n(Cc4ccccc4Cl)c4ccccc43)CC2)c1 [Example 56.10, N-(2-{4-[3-(2-Chloro-benzyl)-2-imino-2,3-dihydro-benzoimidazol-1-yl]-piperidin-1-yl}-4-methoxy-phenyl)-acetamide]	88 nM
CC(=O)Nc1ccc(C#N)cc1N1CCC(n2c(=N)n(Cc3cccc4[nH]ccc34)c3ccc(F)cc32)CC1 [Example 56.11, N-(4-Cyano-2-{4-[6-fluoro-2-imino-3-(1H-indol-4-ylmethyl)-2,3-dihydro-benzoimidazol-1-yl]-piperidin-1-yl}-phenyl)-acetamide]	16 nM
CC(=O)Nc1ccc(C)cc1N1CCC(n2c(=N)n(Cc3ccccc3Cl)c3ccc(F)cc32)CC1 [Example 56.12, N-(2-{4-[3-(2-Chloro-benzyl)-6-fluoro-2-imino-2,3-dihydro-benzoimidazol-1-yl]-piperidin-1-yl}-4-methyl-phenyl)-acetamide]	48 nM
